Data as given in patent US20120302609A1, “Pyrazolines for the Modulation of PKM2” (Dynamix Pharmaceuticals LTD., priority 2011, published 2012).

What was measured:
[1] = system: HepG2 (Hepatocellular cancer cell line); assay: Cell proliferation, Assay Protocol I (CellTiter-Glo); format: cell-based; conditions: Homo sapiens
Description: (§1) Growth inhibitory activity against the human tumor cell lines was determined using Promega's CellTiter-Glo® assay. The cell lines of interest were placed in a 96-well microculture plate (Costar® white, flat bottom #3917) in a total volume of 90 μL/well. After 24 hours of incubation in a humidified incubator at 37° C. with 5% CO2 and 95% air, 10 μL of serially diluted test compounds in growth medium were added to each well. After 96 total hours of culture in a CO2 incubator, the plated cells and CellTiter-Glo® (Promega # G7571) reagents were brought to room temperature to equilibrate for 30 minutes. 100 μL of CellTiter-Glo® reagent was added to each well. The plate was shaken for 2 minutes and then left to equilibrate for 10 minutes before reading luminescence on the Tecan GENios microplate reader.
(§2) Percent inhibition of cell growth was calculated relative to untreated control wells. All tests were performed in duplicate for each concentration level. The IC50 value for the test compounds was estimated using Prism 3.03 by curve-fitting the data.

[2] = system: H1299 (Non-small cell lung carcinoma cell line); assay: as above; format: cell-based; conditions: Homo sapiens, NCI-H1299, 96 total hours of culture
Description: as §1, §2

[3] = system: SW480 (Colorectal cancer cell line); assay: as above; format: cell-based; conditions: Homo sapiens
Description: as §1, §2

[4] = system: A549 (Non-small cell lung carcinoma cell line); assay: as above; format: cell-based; conditions: Homo sapiens
Description: as §1, §2

[5] = system: HT-29 (Colorectal cancer cell line); assay: as above; format: cell-based; conditions: Homo sapiens
Description: as §1, §2

[6] = system: HT-29 cells (a colorectal cancer cell line); assay: Combination with 5-FU on HT-29 cells; format: cell-based, human; conditions: FIG. 5
HCT-116 (colon) = assay: Cell proliferation assay (CellTiter-Glo Luminescent); format: cell-based; conditions: Homo sapiens, 1 mM glucose, 96 hr
HepG2 (liver) = assay: Cell proliferation assay (XTT); format: cell-based; conditions: Homo sapiens, Complete media, Assay duration: 72 hours, Readout: XTT
Description: (§3) The assay is based on the ability of metabolic active cells to reduce the tetrazolium salt XTT to orange colored compounds of formazan. The dye formed is water soluble and the dye intensity can be read at a given wavelength with a spectrophotometer. The intensity of the dye is proportional to the number of metabolic active cells. The use of multiwell plates and an ELISA reader enables testing a large number of samples and obtaining easy and rapid results. The test procedure includes cultivation of cells in a 96-well plate, adding the XTT reagent and incubation for 2-24 hours. During incubation an orange color is formed, the intensity of which can be measured with a spectrophotometer, in this instance with an ELISA reader. The greater the number of active cells in the well, the greater the activity of mitochondria enzymes, and the higher the concentration of the dye formed, which can then be measured and quantitated.
• 1. […] The absorbance of the samples was measured against a background control as a blank (see 7) with a spectrophotometer (ELISA reader) at a wavelength of 450-500 nanometer. In order to measure reference absorbance (to measure non-specific readings), a wavelength of 630-690 nanometer was used and subtracted from the 450-500 nanometer measurement. • 7. […] This background absorbance depends on the culture medium, pH, incubation time and length of exposure to light. […]

H1299 cells = assay: Cell cycle analysis; format: cell-based, human; conditions: 48 hours, FIG. 6
BT-474 (Breast) = assay: Cell proliferation assay (CellTiter-Glo Luminescent); format: cell-based; conditions: Homo sapiens, Complete media, 96 hr
PKL = PKL (Homo sapiens, UniProt P30613); assay: Isoform selectivity of pyruvate kinases; format: biochemical
HT-29 (colon) = assay: Cell proliferation assay (XTT or CellTiter-Glo); format: cell-based; conditions: Homo sapiens
Description: Day 0 Cells were seeded at 3000 cells/well in 100 μl full media in 96-well culture plates (60 wells/plate, external wells filled with 100 μl PBS) and incubated overnight. • Day 1 On the following day, full media was changed to the tested media and compounds were added in 0.5% DMSO final. • Day 2-5 Cells were incubated over 72 hr. • Day 5 Cell proliferation was assessed using XTT proliferation assay as follows:
as §3, with “The intensity of the dye is proportional to the number of metabolic active cells.” left out, “The test procedure includes cultivation of cells in a 96-well plate, adding the XTT reagent and incubation for 2-24 hours.” left out
• 1. […] The absorbance of the samples was measured against a background control as a blank (see 7) with a spectrophotometer (ELISA reader) at a wavelength of 450-500 nanometer. […] The average absorbance of the blank control wells was subtracted from that of the other wells. […]

Chain of PKL (P30613 1-543 isoform P30613-2): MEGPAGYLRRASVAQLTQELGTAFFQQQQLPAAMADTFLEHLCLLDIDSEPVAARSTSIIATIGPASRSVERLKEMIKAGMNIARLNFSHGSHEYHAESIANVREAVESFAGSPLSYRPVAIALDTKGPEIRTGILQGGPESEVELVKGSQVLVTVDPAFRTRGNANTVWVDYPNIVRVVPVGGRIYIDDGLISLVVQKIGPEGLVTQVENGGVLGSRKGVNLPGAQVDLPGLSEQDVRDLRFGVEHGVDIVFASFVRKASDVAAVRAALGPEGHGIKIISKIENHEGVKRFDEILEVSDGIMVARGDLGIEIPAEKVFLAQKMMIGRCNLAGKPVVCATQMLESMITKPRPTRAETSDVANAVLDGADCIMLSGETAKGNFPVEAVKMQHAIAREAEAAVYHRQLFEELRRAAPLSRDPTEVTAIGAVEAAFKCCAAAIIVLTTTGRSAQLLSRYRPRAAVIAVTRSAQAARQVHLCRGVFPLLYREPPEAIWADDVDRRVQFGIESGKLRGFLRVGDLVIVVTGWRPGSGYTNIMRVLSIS

## CCS(=O)(=O)Nc1ccc(C2=NN(C(C)=O)C(c3ccc(OC)cc3)C2)cc1 (racemic) [Compound 1A, N-(4-(1-acetyl-5-(4-methoxyphenyl)-4,5-dihydro-1H-pyrazol-3-yl)phenyl)ethanesulfonamide]
[1]
  IC50: 40 to 100 µM
[2]
  IC50: 40 to 100 µM
[3]
  IC50: 40 to 100 µM
[4]
  IC50: < 40 µM
[5]
  IC50: > 100 µM
[6]
  effect in combination with 5-FU: at least additive

## COc1ccc([C@@H]2CC(c3ccc(NS(=O)(=O)c4ccc(F)cc4)cc3)=NN2C(C)=O)cc1 [Compound 13A, (S)—N-(4-(1-acetyl-5-(4-methoxyphenyl)-4,5-dihydro-1H-pyrazol-3-yl)phenyl)-4-fluorobenzenesulfonamide]
HCT-116 (colon)
  AC50: 10 to 20 µM
HepG2 (liver)
  AC50: > 20 µM
H1299 cells
  cell cycle analysis: most cells were arrested at the G1/S phase
BT-474 (Breast)
  AC50: 10 to 20 µM
PKL
  AC50: > 11 µM
HT-29 (colon); 1 mM glucose, Assay duration: 72 hours, Readout: XTT
  AC50: 3 to 10 µM
HT-29 (colon); Complete media, 96 hr, CellTiter-Glo
  AC50: 10 to 20 µM
